Experimental data as given in patent US8940777B2 (priority 2008, dated 2015).
Like-named read-outs stand apart in the source and are kept apart here.

System: Rhizoctonia solani
Assay type: in vivo
Conditions: cucumber (Sagami Hanjiro) seeds coated, 7 days after sowing
Description: Thoroughly mixed were 2.5 parts of clothianidin, 1.25 parts of tolclofos-methyl, 14 parts of polyoxyethylene styryl phenyl ether, 6 parts of calcium dodecylbenzenesulfonate and 76.25 parts of xylene to give a formulation.
The formulation was diluted with acetone, to prepare an acetone mixed solution containing clothianidin and tolclofos-methyl of given concentration.
Five (5) g of cucumber (Sagami Hanjiro) seeds were coated with 1 ml of the mixed solution using a rotation mode seed treating machine (Seed Dresser, manufactured by Hans-Ulrich Hege GmbH), to give treated seeds.
The treated seeds were allowed to stand still overnight, then, sowed on a soil stuffed in a plastic pot, and covered by a soil blended with Rhizoctonia solani cultured in a bran medium. Cultivation thereof was performed at room temperature while irrigating. Seven (7) days after sowing, the number of non-budded seeds was checked, and the damaged ratio was calculated from the formula 1. Based on the damaged ratio, the control value was calculated from the formula 2.
For comparison, an acetone solution containing clothianidin of a given concentration, and an acetone solution containing tolclofos-methyl of a given concentration were prepared, and subjected to the same test. […]

| SMILES | Control value (active ingredient amount 10 g/100 kg-seed) | Control value (active ingredient amount 200 g/100 kg-seed) |
| --- | --- | --- |
| COP(=S)(OC)Oc1c(Cl)cc(C)cc1Cl [Tolclofos-methyl, tolclofos-methyl] | 57 | – |
| CN/C(=N\[N+](=O)[O-])NCc1cnc(Cl)s1 [Clothianidin, clothianidin] | – | 4 |
